Laboratory results as given in article PMC11224282, “Insight into binding of endogenous neurosteroid ligands to the sigma-1 receptor” (Nature Communications, 2024).
Where a name gives a salt, the structure may show the parent alone. Read-outs that look alike come from different tables or passages of the source.

Assays:
xlσ1R wild-type = molecular target: T1, xlσ1R wild-type (Xenopus laevis, UniProt Q6DCU6); assay: Microscale thermophoresis (MST) binding to xlσ1R wild-type
T1 construct: hemagglutinin signal peptide (N); made in house; host or cells: Pichia pastoris GS115
T1 sequence (Q6DCU6 1-221): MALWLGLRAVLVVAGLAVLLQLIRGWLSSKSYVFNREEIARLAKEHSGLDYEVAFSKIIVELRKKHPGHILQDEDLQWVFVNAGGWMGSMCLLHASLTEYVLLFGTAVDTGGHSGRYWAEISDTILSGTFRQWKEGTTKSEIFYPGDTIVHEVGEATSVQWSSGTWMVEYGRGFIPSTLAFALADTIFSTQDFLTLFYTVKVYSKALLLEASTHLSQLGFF

σ1R = details: cited from earlier work; for Ki: inhibition of radioligand (e.g. [3H]SKF-10,047) binding to σ1R
xlσ1R E169A = molecular target: T2, xlσ1R E169A (Xenopus laevis, UniProt Q6DCU6, E169A); assay: Microscale thermophoresis (MST) binding to xlσ1R E169A mutant
T2 construct: hemagglutinin signal peptide (N); made in house; host or cells: Pichia pastoris GS115
T2 sequence (Q6DCU6 1-221 E169A): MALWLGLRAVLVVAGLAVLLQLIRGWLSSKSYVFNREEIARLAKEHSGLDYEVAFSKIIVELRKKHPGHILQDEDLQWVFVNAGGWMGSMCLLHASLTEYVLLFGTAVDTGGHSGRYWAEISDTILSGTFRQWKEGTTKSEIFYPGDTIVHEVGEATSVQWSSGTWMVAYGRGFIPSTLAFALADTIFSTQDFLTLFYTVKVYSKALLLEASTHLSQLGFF

[1] = molecular target: the molecule itself; assay: crystal structure; sitting-drop vapour diffusion at 20 °C; 0.32 M LiCl, 0.1 M sodium citrate pH 5.5, 12% PEG 4000, 10% glycerol, 15 mM sodium cholate; protein in OG/CHS; no ligand added, or with 1 mM progesterone or 1 mM DHEAS; space groups I432 (trimer by crystal symmetry) and C2 (two trimers in the asymmetric unit)

**Q.** With CCCCCCCCO[C@@H]1O[C@H](CO)[C@@H](O)[C@H](O)[C@H]1O [OG, octyl-β-D-glucopyranoside] as the molecule, how does the Kd (xlσ1R wild-type; MST binding assay, xlσ1R, printed only in peer review file, OG data removed from final manuscript, read-out: Kd) read?
**A.** Its Kd is 8300 ± 2700 µM.

**Q.** For pregnenolone sulfate, which Ki (σ1R) is on record?
**A.** The Ki was “micromolar range or more”.

**Q.** Which Ki (σ1R) does the source give for C[C@]12CC[C@H](O)CC1=CC[C@@H]1[C@@H]2CC[C@]2(C)C(=O)CC[C@@H]12 [DHEA, dehydroepiandrosterone] here?
**A.** Its Ki is “micromolar range or more”.

**Q.** Which results are given for CC(=O)[C@H]1CC[C@H]2[C@@H]3CCC4=CC(=O)CC[C@]4(C)[C@H]3CC[C@]12C [progesterone]?
**A.** Kd (xlσ1R wild-type; MST, wild-type xlσ1R, N = 3, mean (± SD), read-out: Kd (mean)): 0.94 ± 0.22 µM; Kd (xlσ1R wild-type; Source Data sheet Supplementary Table 3, wild-type, repeat 1, read-out: Kd Repeat 1): 0.71 µM; Kd (xlσ1R wild-type; Source Data sheet Supplementary Table 3, wild-type, repeat 2, read-out: Kd Repeat 2): 0.96 µM; Kd (xlσ1R wild-type; Source Data sheet Supplementary Table 3, wild-type, repeat 3, read-out: Kd Repeat 3): 1.14 µM; affinity for σ1R (σ1R): in μM range; Ki (σ1R): submicromolar range

**Q.** Which results are given for CC12CCC3C(CC=C4CC(OS(=O)(=O)O)CCC43C)C1CCC2=O (stereo not drawn) [DHEAS, dehydroepiandrosterone sulfate]?
**A.** Kd (xlσ1R wild-type; read-out: Kd (mean), MST, wild-type xlσ1R, N = 3, mean (± SD)): 18 ± 2.5 µM; Kd (xlσ1R wild-type; read-out: Kd Mean, Source Data sheet Supplementary Table 3, wild-type, mean of 3): 18 µM; Kd (xlσ1R wild-type; read-out: Kd Repeat 1, Source Data sheet Supplementary Table 3, wild-type, repeat 1): 17.2 µM; Kd (xlσ1R wild-type; read-out: Kd Repeat 2, Source Data sheet Supplementary Table 3, wild-type, repeat 2): 15.9 µM; Kd (xlσ1R wild-type; read-out: Kd Repeat 3, Source Data sheet Supplementary Table 3, wild-type, repeat 3): 20.8 µM; Kd (xlσ1R E169A; read-out: Kd (mean), MST, xlσ1R E169A, N = 3, mean (± SD)): 456 ± 17 µM; Kd (xlσ1R E169A; read-out: Kd Mean, Source Data sheet Supplementary Table 3, E169A, mean of 3): 456 µM; Kd (xlσ1R E169A; read-out: Kd Repeat 1, Source Data sheet Supplementary Table 3, E169A, repeat 1): 471 µM; Kd (xlσ1R E169A; read-out: Kd Repeat 2, Source Data sheet Supplementary Table 3, E169A, repeat 2): 438 µM; Kd (xlσ1R E169A; read-out: Kd Repeat 3, Source Data sheet Supplementary Table 3, E169A, repeat 3): 460 µM; Ki (σ1R): micromolar range or more

B1: sigma-1 receptor from Xenopus laevis (xlσ1R), wild type, purification tag removed (receptor)
chain: MALWLGLRAVLVVAGLAVLLQLIRGWLSSKSYVFNREEIARLAKEHSGLDYEVAFSKIIVELRKKHPGHILQDEDLQWVFVNAGGWMGSMCLLHASLTEYVLLFGTAVDTGGHSGRYWAEISDTILSGTFRQWKEGTTKSEIFYPGDTIVHEVGEATSVQWSSGTWMVEYGRGFIPSTLAFALADTIFSTQDFLTLFYTVKVYSKALLLEASTHLSQLGFF
notes: sigma-1 receptor, Xenopus laevis, NCBI NP_001087013.1, wild type; the simulation methods speak of residues 1-33 (transmembrane helix) and 34-219 of the crystal model; Cloned in a modified pPICZ plasmid after a hemagglutinin signal peptide, a decahistidine tag and a TEV protease site; the tag was removed by TEV protease before crystallisation; also called xlσ1R_(unknown-lig); xlσ1R_(prog-co); not …
**Q.** With B1 as the molecule, how does the “stoichiometry N” value [1] read?
**A.** The value was 3.
